From publication PMC10838953
Several values for one entry are separate records, joined by “and”; a condition that tells them apart may be missing. Equal entries are not always repeated.

What was measured:
HeLa cells = settings: cited from earlier work
HEK293 cell line = settings: nontumor HEK293 cell line; cited from earlier work
caspase-3 in 786-O cells = settings: 72 h, compounds at 20 μM
AKT (S129) = settings: 786-O cells; 48 h
[1] = system: tumor slices of clear cell renal carcinoma (786-O-luc xenograft); settings: 10 μM CX-4945, 5 μM AB668
[2] = system: AKT (S129) in 786-O cells

For `O=C(CCC(=O)NCCc1ccc(Cl)c(Cl)c1)NCCCCn1cnc2c(Br)c(Br)c(Br)c(Br)c21` [KN2], the cytotoxicity (HeLa cells) is given as 6 µM and the cytotoxicity (HEK293 cell line) is given as 16 µM.

For `O=C(O)c1ccc2c(c1)nc(Nc1cccc(Cl)c1)c1ccncc12` [CX-4945, silmitasertib], the caspase-3 activation (caspase-3 in 786-O cells) was “induced caspase-3 activation”, the “phosphorylation of S129AKT” value (AKT (S129)) was “decreased, in a dose-dependent manner” and the “cell viability of tumor slices” value [1] was “had no effect”. For the same compound, the “CK2 inhibition 8 h after inhibitor removal” value (CK2 in 786-O cells) was “CK2 activity was restored to its initial level”, the “pAKTS129 / AKT band quantification” value [2] was 0.3 and 0.4 and the “NES: Cell recruitment (pro-inflammatory response)” value (786-O cells) was 1.563. The “NES: Constitutive Signaling by NOTCH1 HD+PEST Domain Mutants” value (786-O cells) was -1.497, the “NES: Constitutive Signaling by NOTCH1 PEST Domain Mutants” value (786-O cells) was -1.497 and the “NES: Export of Viral Ribonucleoproteins from Nucleus” value (786-O cells) was 1.432. The “NES: G alpha (12/13) signalling events” value (786-O cells) was -1.412, the “NES: HCMV Late Events” value (786-O cells) was 1.511 and the “NES: Infection with Mycobacterium tuberculosis” value (786-O cells) was 1.475. For the same compound, the “NES: Interferon alpha/beta signaling” value (786-O cells) was -1.554, the “NES: Purinergic signaling in leishmaniasis infection” value (786-O cells) was 1.563 and the “NES: Response of Mtb to phagocytosis” value (786-O cells) was 1.605. The “NES: Rev-mediated nuclear export of HIV RNA” value (786-O cells) was 1.427, the “NES: Signaling by NOTCH1 HD+PEST Domain Mutants in Cancer” value (786-O cells) was -1.497 and the “NES: Signaling by NOTCH1 PEST Domain Mutants in Cancer” value (786-O cells) was -1.497. The “NES: Signaling by NOTCH1 in Cancer” value (786-O cells) was -1.497, the “NES: Uptake and actions of bacterial toxins” value (786-O cells) was 1.428 and the “enrichmentScore: Cell recruitment (pro-inflammatory response)” value (786-O cells) was 0.6607. The “enrichmentScore: Constitutive Signaling by NOTCH1 HD+PEST Domain Mutants” value (786-O cells) was -0.4974, the “enrichmentScore: Constitutive Signaling by NOTCH1 PEST Domain Mutants” value (786-O cells) was -0.4974 and the “enrichmentScore: Export of Viral Ribonucleoproteins from Nucleus” value (786-O cells) was 0.45. For the same compound, the “enrichmentScore: G alpha (12/13) signalling events” value (786-O cells) was -0.5156, the “enrichmentScore: HCMV Late Events” value (786-O cells) was 0.4357 and the “enrichmentScore: Infection with Mycobacterium tuberculosis” value (786-O cells) was 0.5692. For the same compound, the “enrichmentScore: Purinergic signaling in leishmaniasis infection” value (786-O cells) was 0.6607, the “enrichmentScore: Response of Mtb to phagocytosis” value (786-O cells) was 0.6338 and the “enrichmentScore: Rev-mediated nuclear export of HIV RNA” value (786-O cells) was 0.4457. The “enrichmentScore: Signaling by NOTCH1 HD+PEST Domain Mutants in Cancer” value (786-O cells) was -0.4974, the “enrichmentScore: Signaling by NOTCH1 PEST Domain Mutants in Cancer” value (786-O cells) was -0.4974 and the “enrichmentScore: Signaling by NOTCH1 in Cancer” value (786-O cells) was -0.4974. For the same compound, the “enrichmentScore: Uptake and actions of bacterial toxins” value (786-O cells) was 0.5866, the “NES: SARS-CoV-1 activates/modulates innate immune responses” value (786-O cells; R-HSA-9692916, CX4945 vs DMSO) was 1.374 and the “enrichmentScore: SARS-CoV-1 activates/modulates innate immune responses” value (786-O cells; R-HSA-9692916, CX4945 vs DMSO) was 0.4726. The “NES: SARS-CoV-1 modulates host translation machinery” value (786-O cells; R-HSA-9735869, CX4945 vs DMSO) was -1.391 and the “enrichmentScore: SARS-CoV-1 modulates host translation machinery” value (786-O cells; R-HSA-9735869, CX4945 vs DMSO) was -0.4335.

With `CN[C@@H]1C[C@H]2O[C@@](C)([C@@H]1OC)n1c3ccccc3c3c4c(c5c6ccccc6n2c5c31)C(=O)NC4` [staurosporine] the caspase-3 activation (caspase-3 in 786-O cells) was “induced caspase-3 activation”.

For `CCC(=O)Nc1cc(Nc2cc(NC3CC3)n3ncc(C#N)c3n2)ccc1C` [SGC-CK2-1], the caspase-3 activation (caspase-3 in 786-O cells) was “did not activate caspase-3”, the “phosphorylation of S129AKT” value (AKT (S129)) was “decreased, in a dose-dependent manner” and the “CK2 inhibition 8 h after inhibitor removal” value (CK2 in 786-O cells) was “persisted”. The “pAKTS129 / AKT band quantification” value [2] was 0.4.
